Literature values as cited in patent US8642081B2, “Chewable, suckable and swallowable tablet containing a calcium-containing compound as an active substance” (Takeda Nycomed AS, priority 2004, dated 2014).

System: treated patients
Settings: annual injections of 150.000-300.000 IU

## vitamin D
  overall fracture rate: significant reduction
  rate of hip fracture: not
